Measurements from US10596168B2, “Antagonists of the thyroid-stimulating hormone receptor (TSHR)” (Forschungsverbund Berlin e.V., priority 2016, dated 2020).

Molecular target: T1, TSHR (Homo sapiens, UniProt P16473)
T1 construct: expressed in transfected cells
Test: cAMP accumulation radioimmunoassay (RIA), inhibition of TSH-induced cAMP production in HEK-293 cells stably expressing TSHR
Type: cell-based
Parameters: antagonistic activity (% inhibition): concentration or dose not given beside the values
Conditions: inhibiting cAMP stimulation by TSH, radioimmunoassay
Protocol: HEK-293 cells stably expressing TSHR, FSHR, LHGCR or CRF1R were cultured for 48 h and stimulated for 1 h at 37° C. with stimulation buffer (DMEM supplemented with 10 mM HEPES, 0.5% BSA, 0.25 mM 3-isobutyl-1-methylxanthine) containing the ligands as indicated. After stimulation medium was aspirated and reactions were stopped by lysis of the cells with 0.1% trifluoroacetic acid, 0.005% Triton X-100 for 30 min at 4° C. Supernatants were collected and heated at 95° C. for 10 min, dried in a rotation vacuum concentrator (Alpha-RCV, Christ) and finally stored at −20° C. until use. After reconstitution and acetylation of the samples (Jäschke et al. 2006), the cAMP content was determined using cAMP-^125I-tyrosyl methyl ester (10,000 cpm, IBL) and polyclonal rabbit anti cAMP antibodies. The radioactivity of the precipitate was determined in a γ-counter.
For the Secondary Screening cAMP accumulation was measured by radioimmunoassay (RIA) in HEK-293-TSHR cells as described before.
For the secondary screening we used a very sensitive in vitro technique, the radioimmunoassay. This assay was established and performed in HEK-293 cell line stably expressing TSHR.
Therefore RIA was used to measure the cAMP accumulation upon stimulation with TSH (EC80 value) and confirmed the desired effect for S4 and S9 with a clear decrease of cAMP production.

T1 sequence (P16473 21-764): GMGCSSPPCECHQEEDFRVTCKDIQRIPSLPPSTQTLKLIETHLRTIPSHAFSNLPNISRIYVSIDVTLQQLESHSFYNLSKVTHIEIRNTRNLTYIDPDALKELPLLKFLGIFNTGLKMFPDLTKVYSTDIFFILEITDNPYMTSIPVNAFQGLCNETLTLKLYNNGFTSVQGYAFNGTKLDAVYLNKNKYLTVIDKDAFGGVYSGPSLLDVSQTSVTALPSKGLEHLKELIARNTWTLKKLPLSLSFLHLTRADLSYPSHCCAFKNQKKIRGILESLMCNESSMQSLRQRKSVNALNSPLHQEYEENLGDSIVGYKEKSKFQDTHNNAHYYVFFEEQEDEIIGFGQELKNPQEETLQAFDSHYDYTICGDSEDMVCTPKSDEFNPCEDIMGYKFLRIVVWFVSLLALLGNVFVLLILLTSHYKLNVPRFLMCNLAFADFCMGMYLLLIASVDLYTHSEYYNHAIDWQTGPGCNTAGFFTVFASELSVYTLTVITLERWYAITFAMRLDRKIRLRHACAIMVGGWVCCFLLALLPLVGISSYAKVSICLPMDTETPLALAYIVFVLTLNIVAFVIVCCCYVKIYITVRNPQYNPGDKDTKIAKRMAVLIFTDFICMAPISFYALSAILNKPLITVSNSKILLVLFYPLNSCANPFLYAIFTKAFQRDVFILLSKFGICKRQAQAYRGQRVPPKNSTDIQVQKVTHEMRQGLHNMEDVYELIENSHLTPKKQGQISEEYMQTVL

| antagonistic activity (% inhibition) | SMILES |
| --- | --- |
| 34% | O=C1[C@@H]2[C@H]3C[C@H]([C@@H]4Sc5[nH]c(=O)sc5[C@@H](c5ccccc5)[C@H]34)[C@@H]2C(=O)N1c1ccc(O)cc1 (racemic) [Compound S100, (4aR,5R,5aS,8aS,9S,9aR,10S)-7-(4-hydroxyphenyl)-10-phenyl-3,4a,5,5a,8a,9,9a,10-octahydro-5,9-methanothiazolo[5′,4′:5,6]thiopyrano[2,3-f]isoindole-2,6,8(7H)-trione compound with (4aS,5S,5aR,8aR,9R,9aS,10R)-7-(4-hydroxyphenyl)-10-phenyl-3,4a,5,5a,8a,9,9a,10-octahydro-5,9-methanothiazolo[5′,4′:5,6]thiopyrano[2,3-f]isoindole-2,6,8(7H)-trione (1:1)] |
| 38% | O=C1[C@@H]2[C@H]3C[C@H]([C@@H]4Sc5[nH]c(=O)sc5[C@@H](c5ccc(O)cc5)[C@H]34)[C@@H]2C(=O)N1c1ccccc1 (racemic) [Compound S122, (4aR,5R,5aS,8aS,9S,9aR,10S)-10-(4-hydroxyphenyl)-7-phenyl-3,4a,5,5a,8a,9,9a,10-octahydro-5,9-methanothiazolo[5′,4′:5,6]thiopyrano[2,3-f]isoindole-2,6,8(7H)-trione compound with (4aS,5S,5aR,8aR,9R,9aS,10R)-10-(4-hydroxyphenyl)-7-phenyl-3,4a,5,5a,8a,9,9a,10-octahydro-5,9-methanothiazolo[5′,4′:5,6]thiopyrano[2,3-f]isoindole-2,6,8(7H)-trione (1:1)] |
| 22% | O=C1[C@@H]2[C@H]3C[C@H]([C@@H]4Sc5[nH]c(=O)sc5[C@@H](c5ccc(F)cc5)[C@H]34)[C@@H]2C(=O)N1c1ccccc1 (racemic) [Compound S124, (4aR,5R,5aS,8aS,9S,9aR,10S)-10-(4-fluorophenyl)-7-phenyl-3,4a,5,5a,8a,9,9a,10-octahydro-5,9-methanothiazolo[5′,4′:5,6]thiopyrano[2,3-f]isoindole-2,6,8(7H)-trione compound with (4aS,5S,5aR,8aR,9R,9aS,10R)-10-(4-fluorophenyl)-7-phenyl-3,4a,5,5a,8a,9,9a,10-octahydro-5,9-methanothiazolo[5′,4′:5,6]thiopyrano[2,3-f]isoindole-2,6,8(7H)-trione (1:1)] |

Further lines, the compound ahead of its results:

| SMILES | antagonistic activity (% inhibition) |
| --- | --- |
| Nc1ccc(N2C(=O)[C@@H]3[C@H]4C[C@H]([C@@H]5Sc6[nH]c(=O)sc6[C@@H](c6ccccc6)[C@H]45)[C@@H]3C2=O)cc1 (racemic) [Compound S79, (4aR,5R,5aS,8aS,9S,9aR,10S)-7-(4-aminophenyl)-10-phenyl-3,4a,5,5a,8a,9,9a,10-octahydro-5,9-methanothiazolo[5′,4′:5,6]thiopyrano[2,3-f]isoindole-2,6,8(7H)-trione Compound with (4aS,5S,5aR,8aR,9R,9aS,10R)-7-(4-aminophenyl)-10-phenyl-3,4a,5,5a,8a,9,9a,10-octahydro-5,9-methanothiazolo[5′,4′:5,6]thiopyrano[2,3-t]isoindole-2,6,8(7H)-trione (1:1)] | 29% |
| CC(=O)c1ccc(N2C(=O)[C@@H]3[C@H]4C[C@H]([C@@H]5Sc6[nH]c(=O)sc6[C@@H](c6ccccc6)[C@H]45)[C@@H]3C2=O)cc1 (racemic) [Compound S80, (4aR,5R,5aS,8aS,9S,9aR,10S)-7-(4-acetylphenyl)-10-phenyl-3,4a,5,5a,8a,9,9a,10-octahydro-5,9-methanothiazolo[5′,4′:5,6]thiopyrano[2,3-f]isoindole-2,6,8(7H)-trione Compound with (4aS,5S,5aR,8aR,9R,9aS,10R)-7-(4-acetylphenyl)-10-phenyl-3,4a,5,5a,8a,9,9a,10-octahydro-5,9-methanothiazolo[5′,4′:5,6]thiopyrano[2,3-f]isoindole-2,6,8(7H)-trione (1:1)] | 25% |
| COC(=O)c1ccc(N2C(=O)[C@@H]3[C@H]4C[C@H]([C@@H]5Sc6[nH]c(=O)sc6[C@@H](c6ccccc6)[C@H]45)[C@@H]3C2=O)cc1 (racemic) [Compound S87, methyl 4-((4aR,5R,5aS,8aS,9S,9aR,10S)-2,6,8-trioxo-10-phenyl-3,4a,5,5a,6,8,8a,9,9a,10-decahydro-5,9-methanothiazolo[5′,4′:5,6]thiopyrano[2,3-f]isoindol-7(2H)-yl)benzoate compound with methyl 4-((4aS,5S,5aR,8aR,9R,9aS,10R)-2,6,8-trioxo-10-phenyl-3,4a,5,5a,6,8,8a,9,9a,10-decahydro-5,9-methanothiazolo[5′,4′:5,6]thiopyrano[2,3-f]isoindol-7(2H)-yl)benzoate (1:1)] | 29% |
| COc1ccc(N2C(=O)[C@@H]3[C@H]4C[C@H]([C@@H]5Sc6[nH]c(=O)sc6[C@@H](c6ccccc6)[C@H]45)[C@@H]3C2=O)cc1 (racemic) [Compound S89, (4aR,5R,5aS,8aS,9S,9aR,10S)-7-(4-methoxyphenyl)-10-phenyl-3,4a,5,5a,8a,9,9a,10-octahydro-5,9-methanothiazolo[5′,4′:5,6]thiopyrano[2,3-t]isoindole-2,6,8(7H)-trione compound with (4aS,5S,5aR,8aR,9R,9aS,10R)-7-(4-methoxyphenyl)-10-phenyl-3,4a,5,5a,8a,9,9a,10-octahydro-5,9-methanothiazolo[5′,4′:5,6]thiopyrano[2,3-t]isoindole-2,6,8(7H)-trione (1:1)] | 22% |
| Cc1ccc(N2C(=O)[C@@H]3[C@H]4C[C@H]([C@@H]5Sc6[nH]c(=O)sc6[C@@H](c6ccccc6)[C@H]45)[C@@H]3C2=O)cc1 (racemic) [Compound S90, (4aR,5R,5aS,8aS,9S,9aR,10S)-10-phenyl-7-(p-tolyl)-3,4a,5,5a,8a,9,9a,10-octahydro-5,9-methanothiazolo[5′,4′:5,6]thiopyrano[2,3-f]isoindole-2,6,8(7H)-trione Compound with (4aS,5S,5aR,8aR,9R,9aS,10R)-10-phenyl-7-(p-tolyl)-3,4a,5,5a,8a,9,9a,10-octahydro-5,9-methanothiazolo[5′,4′:5,6]thiopyrano[2,3-f]isoindole-2,6,8(7H)-trione (1:1)] | 53% |
| COC(=O)c1cccc(N2C(=O)[C@@H]3[C@H]4C[C@H]([C@@H]5Sc6[nH]c(=O)sc6[C@@H](c6ccccc6)[C@H]45)[C@@H]3C2=O)c1 (racemic) [Compound S96, methyl 3-((4aR,5R,5aS,8aS,9S,9aR,10S)-2,6,8-trioxo-10-phenyl-3,4a,5,5a,6,8,8a,9,9a,10-decahydro-5,9-methanothiazolo[5′,4′:5,6]thiopyrano[2,3-f]isoindol-7(2H)-yl)benzoate compound with methyl 3-((4aS,5S,5aR,8aR,9R,9aS,10R)-2,6,8-trioxo-10-phenyl-3,4a,5,5a,6,8,8a,9,9a,10-decahydro-5,9-methanothiazolo[5′,4′:5,6]thiopyrano[2,3-f]isoindol-7(2H)-yl)benzoate (1:1)] | 34% |
